This is an account of results in ChEMBL document CHEMBL1140998, “RNA bandages for photoregulating in vitro protein synthesis” (Bioorg Med Chem Lett, 2008).

The structures appear in SMILES notation. The source made the active and inactive calls. No cut-off for these calls is given here.

Test [1] concerns Aequorea victoria. The test can be described thus: Binding affinity to Aequorea victoria GFP mRNA (1-26) assessed as change in melting temperature.
Test [2] deals with Aequorea victoria. Briefly: Binding affinity to Aequorea victoria GFP mRNA (1-26) assessed as melting temperature.
The test system of test [3] is Aequorea victoria. Briefly: Blockade of Aequorea victoria GFP mRNA (1-26) translation activity assessed as reduction in protein expression level measured after UV irradiation at a drug:mRNA molar ratio of 12:1 measured after UV irradiation by gel electrophoresis.
In test [4] the test system is Aequorea victoria. The test can be described thus: Blockade of Aequorea victoria GFP mRNA (1-26) translation activity assessed as reduction in protein expression level at a drug:mRNA molar ratio of 12:1 measured prior to UV irradiation by gel electrophoresis. On the set-up: scale not given: the % may be the effect or the level left.
Test [5] concerns Aequorea victoria. Briefly: Blockade of Aequorea victoria GFP mRNA (1-26) translation activity assessed as reduction in protein expression level at a drug:mRNA molar ratio of 2:1 measured after UV irradiation by gel electrophoresis.
Test [6] has as its system Aequorea victoria. The test can be described thus: Blockade of Aequorea victoria GFP mRNA (1-26) translation activity assessed as reduction in protein expression level at a drug:mRNA molar ratio of 2:1 measured prior to UV irradiation by gel electrophoresis. On the set-up: scale not given: the % may be the effect or the level left.

A word on the ΔTm: it is the shift of the melting midpoint relative to a reference. On to `CC(OC(=O)NCCCCCCOC[C@H]1O[C@@H](n2ccc(N)nc2=O)[C@H](O)[C@@H]1OP(=O)(O)OC[C@H]1O[C@@H](n2ccc(=O)[nH]c2=O)[C@H](O)[C@@H]1OP(=O)(O)OC[C@H]1O[C@@H](n2cnc3c(N)ncnc32)[C@H](O)[C@@H]1OP(=O)(O)OC[C@H]1O[C@@H](n2cnc3c(=O)[nH]c(N)nc32)[C@H](O)[C@@H]1OP(=O)(O)OC[C@H]1O[C@@H](n2ccc(N)nc2=O)[C@H](O)[C@@H]1OP(=O)(O)OC[C@H]1O[C@@H](n2ccc(N)nc2=O)[C@H](O)[C@@H]1OP(=O)(O)OC[C@H]1O[C@@H](n2cnc3c(N)ncnc32)[C@H](O)[C@@H]1OP(=O)(O)OC[C@H]1O[C@@H](n2cnc3c(=O)[nH]c(N)nc32)[C@H](O)[C@@H]1OC[C@H]1O[C@@H](n2ccc(N)nc2=O)[C@H](O)[C@@H]1OC[C@H]1O[C@@H](n2ccc(=O)[nH]c2=O)[C@H](O)[C@@H]1O)c1cc(CN2C(=O)CC(SCCCO[C@H]3[C@@H](O)[C@H](n4ccc(=O)[nH]c4=O)O[C@@H]3COP(=O)(O)O[C@H]3[C@@H](O)[C@H](n4cnc5c(=O)[nH]c(N)nc54)O[C@@H]3COP(=O)(O)O[C@H]3[C@@H](O)[C@H](n4ccc(=O)[nH]c4=O)O[C@@H]3COP(=O)(O)O[C@H]3[C@@H](O)[C@H](n4cnc5c(=O)[nH]c(N)nc54)O[C@@H]3COP(=O)(O)O[C@H]3[C@@H](O)[C@H](n4cnc5c(=O)[nH]c(N)nc54)O[C@@H]3COP(=O)(O)O[C@H]3[C@@H](O)[C@H](n4ccc(=O)[nH]c4=O)O[C@@H]3COP(=O)(O)O[C@H]3[C@@H](O)[C@H](n4cnc5c(N)ncnc54)O[C@@H]3COP(=O)(O)O[C@H]3[C@@H](O)[C@H](n4ccc(N)nc4=O)O[C@@H]3CO)C2=O)ccc1[N+](=O)[O-]` (some centres not stated), for which the ΔTm in test [1] stood at 32 °C. Moreover, the Tm in test [2] amounted to 62.2 °C. Further, the result in test [3] was Active. The Activity in test [4] worked out at 10%.

On to `CC(OC(=O)NCCCCCCOC[C@H]1O[C@@H](n2ccc(N)nc2=O)[C@H](O)[C@@H]1OP(=O)(O)OC[C@H]1O[C@@H](n2ccc(N)nc2=O)[C@H](O)[C@@H]1OP(=O)(O)OC[C@H]1O[C@@H](n2cnc3c(N)ncnc32)[C@H](O)[C@@H]1OP(=O)(O)OC[C@H]1O[C@@H](n2cnc3c(=O)[nH]c(N)nc32)[C@H](O)[C@@H]1OP(=O)(O)OC[C@H]1O[C@@H](n2ccc(N)nc2=O)[C@H](O)[C@@H]1OP(=O)(O)OC[C@H]1O[C@@H](n2ccc(=O)[nH]c2=O)[C@H](O)[C@@H]1OP(=O)(O)OC[C@H]1O[C@@H](n2ccc(=O)[nH]c2=O)[C@H](O)[C@@H]1OP(=O)(O)OC[C@H]1O[C@@H](n2cnc3c(=O)[nH]c(N)nc32)[C@H](O)[C@@H]1OP(=O)(O)OC[C@H]1O[C@@H](n2cnc3c(=O)[nH]c(=O)[nH]c32)[C@H](O)[C@@H]1OP(=O)(O)OC[C@H]1O[C@@H](n2cnc3c(=O)[nH]c(=O)[nH]c32)[C@H](O)[C@@H]1OP(=O)(O)OC[C@H]1O[C@@H](n2ccc(=O)[nH]c2=O)[C@H](O)[C@@H]1OP(=O)(O)OC[C@H]1O[C@@H](n2ccc(N)nc2=O)[C@H](O)[C@@H]1O)c1cc(CN2C(=O)CC(SCCCO[C@H]3[C@@H](O)[C@H](n4cnc5c(=O)[nH]c(N)nc54)O[C@@H]3COP(=O)(O)O[C@H]3[C@@H](O)[C@H](n4cnc5c(N)ncnc54)O[C@@H]3COP(=O)(O)O[C@H]3[C@@H](O)[C@H](n4ccc(=O)[nH]c4=O)O[C@@H]3COP(=O)(O)O[C@H]3[C@@H](O)[C@H](n4ccc(N)nc4=O)O[C@@H]3CO[C@@H]3[C@H](O)[C@@H](COP(=O)(O)O[C@H]4[C@@H](O)[C@H](n5cnc6c(=O)[nH]c(N)nc65)O[C@@H]4COP(=O)(O)O[C@H]4[C@@H](O)[C@H](n5ccc(=O)[nH]c5=O)O[C@@H]4COP(=O)(O)O[C@H]4[C@@H](O)[C@H](n5cnc6c(=O)[nH]c(N)nc65)O[C@@H]4COP(=O)(O)O[C@H]4[C@@H](O)[C@H](n5cnc6c(=O)[nH]c(N)nc65)O[C@@H]4COP(=O)(O)O[C@H]4[C@@H](O)[C@H](n5ccc(=O)[nH]c5=O)O[C@@H]4COP(=O)(O)O[C@H]4[C@@H](O)[C@H](n5cnc6c(N)ncnc65)O[C@@H]4COP(=O)(O)O[C@H]4[C@@H](O)[C@H](n5ccc(N)nc5=O)O[C@@H]4CO)O[C@H]3n3ccc(=O)[nH]c3=O)C2=O)ccc1[N+](=O)[O-]` (some centres not stated), for which the ΔTm in test [1] is 24 °C. In addition, in test [2], the Tm stood at 81.2 °C. The result in test [5] was Active. Besides, the Activity in test [6] stood at 100%.

In the case of `CC(OC(=O)NCCCCCCOC[C@H]1O[C@@H](n2ccc(N)nc2=O)[C@H](O)[C@@H]1OP(=O)(O)OC[C@H]1O[C@@H](n2ccc(=O)[nH]c2=O)[C@H](O)[C@@H]1OP(=O)(O)OC[C@H]1O[C@@H](n2cnc3c(N)ncnc32)[C@H](O)[C@@H]1OP(=O)(O)OC[C@H]1O[C@@H](n2cnc3c(=O)[nH]c(N)nc32)[C@H](O)[C@@H]1OP(=O)(O)OC[C@H]1O[C@@H](n2ccc(N)nc2=O)[C@H](O)[C@@H]1OP(=O)(O)OC[C@H]1O[C@@H](n2ccc(N)nc2=O)[C@H](O)[C@@H]1OP(=O)(O)OC[C@H]1O[C@@H](n2cnc3c(N)ncnc32)[C@H](O)[C@@H]1OP(=O)(O)OC[C@H]1O[C@@H](n2cnc3c(=O)[nH]c(N)nc32)[C@H](O)[C@@H]1OC[C@H]1O[C@@H](n2ccc(N)nc2=O)[C@H](O)[C@@H]1OC[C@H]1O[C@@H](n2ccc(=O)[nH]c2=O)[C@H](O)[C@@H]1O)c1cc(CN2C(=O)CC(SCCCO[C@H]3[C@@H](O)[C@H](n4ccc(=O)[nH]c4=O)O[C@@H]3COP(=O)(O)O[C@H]3[C@@H](O)[C@H](n4cnc5c(=O)[nH]c(N)nc54)O[C@@H]3COP(=O)(O)O[C@H]3[C@@H](O)[C@H](n4ccc(=O)[nH]c4=O)O[C@@H]3COP(=O)(O)O[C@H]3[C@@H](O)[C@H](n4cnc5c(=O)[nH]c(N)nc54)O[C@@H]3COP(=O)(O)O[C@H]3[C@@H](O)[C@H](n4cnc5c(=O)[nH]c(N)nc54)O[C@@H]3COP(=O)(O)O[C@H]3[C@@H](O)[C@H](n4ccc(=O)[nH]c4=O)O[C@@H]3COP(=O)(O)O[C@H]3[C@@H](O)[C@H](n4cnc5c(N)ncnc54)O[C@@H]3COP(=O)(O)O[C@H]3[C@@H](O)[C@H](n4ccc(N)nc4=O)O[C@@H]3CO[C@H]3[C@@H](O)[C@H](n4ccc(N)nc4=O)O[C@@H]3CO[C@H]3[C@@H](O)[C@H](n4cnc5c(=O)[nH]c(N)nc54)O[C@@H]3CO)C2=O)ccc1[N+](=O)[O-]` (some centres not stated), the ΔTm in test [1] was determined as 20 °C. Moreover, the Tm in test [2] worked out at 72.4 °C. Besides, in test [5], the outcome was Active. In addition, the Activity in test [6] is 100%.
